Experiments:
[1] = Hygroscopicity by dynamic moisture sorption (DVS); format: physicochemical; details: 80% relative humidity, 25° C.
Description: About 5 mg of powder sample was weighed and put in a dynamic moisture sorption instrument (DVS). The relative humidity range was set at from 0 to 95%, and the temperature was set at 25° C. The weight change of the samples under different environmental humidity conditions were recorded and used to compare the hygroscopicity of the material.

[2] = Chemical stability at 40° C./75% RH, hydroxytyrosol content by HPLC; format: physicochemical; details: double-layer polyethylene bags; for content of hydroxytyrosol, Day 0: 0 d, initial content set as 100%; for content of hydroxytyrosol, Day 14: 14 d; for content of hydroxytyrosol, Day 14 / content of hydroxytyrosol, Day 30: % of initial content; for content of hydroxytyrosol, Day 30: 30 d
Description: An appropriate amount of powder sample was put in an accelerated stability chamber at 40° C./75% RH with the packaging condition of double-layer polyethylene bags, and the sample was taken at 0 d, 14 d, and 30 d. The content of hydroxytyrosol was determined by high performance liquid chromatography (the content was calculated by external standard method).

Row | content of hydroxytyrosol, Day 30 [2] [%] | content of hydroxytyrosol, Day 30 ([2]; listed as hydroxytyrosol itself) [%] | Molecule | hygroscopicity (in words) [1] | hygroscopicity (weight change) [1] [%] | content of hydroxytyrosol, Day 0 [2] [%] | content of hydroxytyrosol, Day 14 [2] [%]
1 |  |  | co-crystal of hydroxytyrosol and nicotinamide [Example 1] | basically non-hygroscopic | 0.39 | 100.0 | 99.7
2 | 92.3 | 92.3 | OCCc1ccc(O)c(O)c1 [Hydroxytyrosol itself, Hydroxytyrosol] |  | 16.9 | 100.0 | 98.8

Reference: patent US20240166604A1, “HYDROXYTYROSOL NICOTINAMIDE EUTECTIC CRYSTAL, AND PREPARATION METHOD THEREFOR AND COMPOSITION THEREOF” (COCRYSTAL TECHNOLOGY (JIAXING) CO., LTD., priority 2021, published 2024)
